This is an account of results in patent US9403776B2, “Aryl- and heteroaryl-substituted tetrahydrobenzazepines and use thereof to block reuptake of norepinephrine, dopamine, and serotonin” (Albany Molecular Research, Inc., priority 2005, dated 2016).

Molecules are shown by their SMILES. Structures can show the parent of a compound that is named as a salt.

One may read the melting point as the temperature of the solid-liquid transition.

For the compound `FCCN1CCC(c2ccccc2)c2ccc(N3CCOCC3)cc2C1` (single isomer, unassigned; (+)) (as salt: tartrate) [Example 60, (+)-4-(2-(2-fluoroethyl)-5-phenyl-2,3,4,5-tetrahydro-1H-benzo[c]azepin-8-yl)morpholine], the melting point was in the range of 102 to 105 °C. As for `Cc1ccc(-c2ccc3c(c2)CN(C)CCC3c2ccc(C#N)c(F)c2)nn1` (single isomer, unassigned; (-)) (as salt: tartrate) [Example 92 (−), (−)-2-fluoro-4-(2-methyl-8-(6-methylpyridazin-3-yl)-2,3,4,5-tetrahydro-1H-benzo[c]azepin-5-yl)benzonitrile], the melting point was 122 to 127 °C. As for `CN1CCC(c2ccc(Cl)cc2)c2ccc(-c3cccnn3)cc2C1` (single isomer, unassigned; (+)) (as salt: hydrochloride) [Example 40, (+)-5-(4-chlorophenyl)-2-methyl-8-pyridazin-3-yl-2,3,4,5-tetrahydro-1H-benzo[c]azepine], the figure is 187 to 189 °C (dec.). As for `CN1CCC(c2ccc3sccc3c2)c2ccc(-c3cnccn3)cc2C1.O=C(O)/C=C\C(=O)O` (single isomer, unassigned; (+)) [Example 105, (+)-5-(benzo[b]thiophen-5-yl)-2-methyl-8-(pyrazin-2-yl)-2,3,4,5-tetrahydro-1H-benzo[c]azepine, maleate salt], the figure is 102 to 108 °C; as for `CN1CCC(c2ccccc2)c2ccc(N3CCOCC3)cc2C1` (single isomer, unassigned; (+)) (as salt: maleate) [Example 34, (+)-4-(2-methyl-5-phenyl-2,3,4,5-tetrahydro-1H-benzo[c]azepin-8-yl)morpholine], 88 to 89 °C; as for `COc1ccc2c(c1)CN(C)CCC2c1ccc(F)c(F)c1` (racemic) (as salt: hydrochloride) [Example 9, (+/−)-5-(3,4-difluorophenyl)-8-methoxy-2-methyl-2,3,4,5-tetrahydro-1H-benzo[c]azepine], 139 to 141 °C. The same measure for `Cc1noc(C)c1-c1ccc2c(c1)CN(C)CCC2c1ccc(Cl)cc1` (single isomer, unassigned; (-)) (as salt: maleate) [Example 42, (−)-5-(4-chlorophenyl)-8-(3,5-dimethylisoxazol-4-yl)-2-methyl-2,3,4,5-tetrahydro-1H-benzo[c]azepine]: 66 to 68 °C. `CN1CCC(c2ccccc2)c2ccc(N3CCN(c4ncccn4)CC3)cc2C1` (single isomer, unassigned; (+)) (as salt: tartrate) [Example 69, (+)-2-methyl-5-phenyl-8-(4-(pyrimidin-2-yl)piperazin-1-yl)-2,3,4,5-tetrahydro-1H-benzo[c]azepine] showed a melting point of 119 to 121 °C.

In the case of `CCN1CCC(c2ccccc2)c2ccc(N3CCOCC3)cc2C1` (single isomer, unassigned; (+)) (as salt: maleate) [Example 57 (+), (+)-4-(2-ethyl-5-phenyl-2,3,4,5-tetrahydro-1H-benzo[c]azepin-8-yl)morpholine], the melting point lay in the range of 64 to 66 °C. The same measure for `Cc1nc(-c2ccc3c(c2)CN(C)CCC3c2ccccc2)no1` (single isomer, unassigned; (+)) (as salt: tartrate) [Example 33, (+)-5-methyl-3-(2-methyl-5-phenyl-2,3,4,5-tetrahydro-1H-benzo[c]azepin-8-yl)-1,2,4-oxadiazole]: 102 to 104 °C; for `COc1ccc2c(c1)CN(C)CCC2c1ccc(F)c(Cl)c1` (racemic) (as salt: hydrochloride) [Example 11, (+/−)-5-(3-chloro-4-fluorophenyl)-8-methoxy-2-methyl-2,3,4,5-tetrahydro-1H-benzo[c]azepine]: 167 to 169 °C; for `CN1CCC(c2ccc(F)cc2)c2ccc(N3CCOCC3)cc2C1` (single isomer, unassigned; (+)) (as salt: maleate) [Example 85, (+)-4-(5-(4-fluorophenyl)-2-methyl-2,3,4,5-tetrahydro-1H-benzo[c]azepin-8-yl)morpholine]: 87 to 90 °C. The same measure for `Cc1ccc2c(c1)CN(C)CCC2c1ccc(F)cc1` (single isomer, unassigned; (+)) (as salt: hydrochloride) [Example 16, (+)-5-(4-fluorophenyl)-2,8-dimethyl-2,3,4,5-tetrahydro-1H-benzo[c]azepine]: 243 to 244 °C; for `CN1CCC(c2ccccc2)c2ccc(F)cc2C1.O=C(O)/C=C\C(=O)O` (stereo not shown): 153 to 155 °C; for `CN1CCC(c2ccccc2)c2ccc(-c3ccc(N(C)C)nn3)cc2C1` (single isomer, unassigned; (+)) (as salt: maleate) [Example 26, (+)-dimethyl-[6-(2-methyl-5-phenyl-2,3,4,5-tetrahydro-1H-benzo[c]azepine-8-yl)-pyridazin-3-yl]-amine]: 99 to 102 °C.

As to `CN1CCC(c2ccccc2)c2ccc(-c3ncccn3)cc2C1` (single isomer, unassigned; (+)) (as salt: maleate) [Example 27, (+)-2-methyl-5-phenyl-8-(pyrimidin-2-yl)-2,3,4,5-tetrahydro-1H-benzo[c]azepine], the melting point lay within 76 to 78 °C. `CN1CCC(c2ccccc2)c2ccc(N3CCN(c4ccccn4)CC3)cc2C1` (single isomer, unassigned; (-)) (as salt: tartrate) [Example 68 (−), (−)-2-methyl-5-phenyl-8-(4-(pyridine-2-yl)piperazin-1-yl)-2,3,4,5-tetrahydro-1H-benzo[c]azepine]: the melting point is 112 to 115 °C.

On to `COc1ccc2c(c1)CN(C)CCC2c1ccc2sccc2c1` (single isomer, unassigned; (+)) (as salt: maleate) [Example 52 (+), (+)-5-benzo[b]thiophen-5-yl-8-methoxy-2-methyl-2,3,4,5-tetrahydro-1H-benzo[c]azepine], for which the melting point lay in the range of 92 to 96 °C. The same measure for `Cc1ccc(-c2ccc3c(c2)CN(C)CCC3c2cccc(F)c2)nn1` (single isomer, unassigned; (+)) (as salt: citrate) [Example 84 (+), (+)-5-(3-fluorophenyl)-2-methyl-8-(6-methylpyridazin-3-yl)-2,3,4,5-tetrahydro-1H-benzo[c]azepine]: 90 to 95 °C; for `COc1ccc2c(c1)CN(C)CCC2c1cc(F)c(O)c(F)c1` (stereo not shown) (as salt: citrate) [Example 62, 2,6-difluoro-4-(8-methoxy-2-methyl-2,3,4,5-tetrahydro-1H-benzo[c]azepin-5-yl)phenol]: 88 to 90 °C.

Regarding `Cc1ccc(-c2ccc3c(c2)CN(C)CCC3c2ccccc2)nn1` (single isomer, unassigned; (+)) (as salt: hydrochloride) [Example 24, (+)-2-methyl-8-(6-methyl-pyridazin-3-yl)-5-phenyl-2,3,4,5-tetrahydro-1H-benzo[c]azepine], the melting point is 168 to 170 °C. The same measure for `CN1CCC(c2ccc(Cl)cc2)c2ccc(-c3ncccn3)cc2C1` (single isomer, unassigned; (+)) (as salt: maleate) [Example 44, (+)-5-(4-chlorophenyl)-2-methyl-8-pyrimidin-2-yl-2,3,4,5-tetrahydro-1H-benzo[c]azepine]: 84 to 85 °C. As for `CN1CCC(c2ccccc2)c2ccc(-c3cncnc3)cc2C1` (single isomer, unassigned; (+)) (as salt: maleate) [Example 28, (+)-2-methyl-5-phenyl-8-(pyrimidin-5-yl)-2,3,4,5-tetrahydro-1H-benzo[c]azepine], the figure is 93 to 96 °C. Regarding `COc1ccc2c(c1)CN(C)CCC2c1ccccc1Cl` (racemic) (as salt: hydrochloride) [Example 10, (+/−)-5-(2-chlorophenyl)-8-methoxy-2-methyl-2,3,4,5-tetrahydro-1H-benzo[c]azepine], the melting point fell in the range of 129 to 132 °C.

`OCCN1CCC(c2ccccc2)c2ccc(N3CCOCC3)cc2C1` (single isomer, unassigned; (+)) (as salt: tartrate) [Example 59, (+)-2-(8-morpholino-5-phenyl-4,5-dihydro-1H-benzo[c]azepin-2(3H)-yl)ethanol] displayed a melting point of 93 to 96 °C. For `COc1ccc(C2CCN(C)Cc3cc(OC)ccc32)cc1` (single isomer, unassigned; (-)) (as salt: hydrochloride) [Example 6 (−), (−)-5-(4-methoxyphenyl)-8-methoxy-2-methyl-2,3,4,5-tetrahydro-1H-benzo[c]azepine], the melting point was in the range of 193 to 194 °C. `CN1CCC(c2ccccc2)c2ccc(-c3ccncc3)cc2C1` (single isomer, unassigned; (+)) (as salt: maleate) [Example 31, (+)-2-methyl-5-phenyl-8-(pyridin-4-yl)-2,3,4,5-tetrahydro-1H-benzo[c]azepine]: the melting point is 91 to 93 °C. `Cc1noc(C)c1-c1ccc2c(c1)CN(C)CCC2c1ccc(Cl)cc1` (single isomer, unassigned; (+)) (as salt: maleate) [Example 43, (+)-5-(4-chlorophenyl)-8-(3,5-dimethylisoxazol-4-yl)-2-methyl-2,3,4,5-tetrahydro-1H-benzo[c]azepine]: the melting point was in the range of 196 to 198 °C. As for `COc1ccc2c(c1)CN(C)CCC2c1ccc(O)c(F)c1` (stereo not shown) (as salt: maleate) [Example 63, 2-fluoro-4-(8-methoxy-2-methyl-2,3,4,5-tetrahydro-1H-benzo[c]azepin-5-yl)phenol], the figure is 50 to 54 °C. `CN1CCC(c2ccc3ccccc3c2)c2ccc(-c3cccnn3)cc2C1` (single isomer, unassigned; (+)) (as salt: maleate) [Example 50, (+)-2-methyl-5-naphthalen-2-yl-8-pyridazin-3-yl-2,3,4,5-tetrahydro-1H-benzo[c]azepine]: the melting point lay in the range of 99 to 102 °C. As for `COc1ccc2c(c1)CN(C)CCC2c1ccc(Cl)cc1` (racemic) (as salt: hydrochloride) [Example 7, (+/−)-5-(4-chlorophenyl)-8-methoxy-2-methyl-2,3,4,5-tetrahydro-1H-benzo[c]azepine], the figure is 152 to 153 °C.
